Results published in patent publication US8877928B2 (Shandong University, priority 2010, dated 2014).

Columns and labels:
[1] = loss of midline facial features, uniocular, lack of anatomical features from forebrain; cited from earlier work
[2] = Study of stability in plasma (disappearance of the conjugate by HPLC); conditions: 37° C.
Procedure: The mixture was quenched with a CH3CN/MeOH mixture (800 μL) in a ratio of 1:1, swirled for 1 minute, and then filtered through a 0.2 μm filter membrane. 30 μl of the resulting filtrate was analyzed by HPLC, to measure the disappearance of the conjugate.

COLO 205 = assay: cells; conditions: Homo sapiens, COLO 205, read-out: IC50 COLO205
Procedure: (§1) All cell lines were obtained from the American Type Culture Collection, and grown in the following media: COLO 205 and OVCAR-3 (RPMI 1640, containing 4.5 g/L glucose, 10 mM HEPES, 1 mM sodium pyruvate, 10% FBS); HT-29 (McCoy's 5a, containing 1.5 mM L-glutamine, 10% FBS); A549 (Ham's F12K, containing 10% FBS). All cell lines were maintained in an incubator at 37° C. containing 5% CO2. […] Briefly, the day before the start of the experiment the cells were incubated in a 96-well plate in a quantity of 10,000-20,000/well. […] At the end of the incubation period, an MTS dye was added, and then the colored product formazane as formed was measured by a Spectramax 340PC reader (Molecular Devices, CA) at 490 nm.
(§2) A interval was less than 0.100 μM; B interval was greater than 0.100 μM but less than 0.500 μM; C interval was greater than 0.500 μM but less than 2.000 μM; D interval was greater than 2.000 μM.

OVCAR-3 = assay: cells; conditions: Homo sapiens, OVCAR-3, read-out: IC50 OVCAR3
Procedure: as §1, §2

A549 = assay: cells; conditions: Homo sapiens, A549, read-out: IC50 A549
Procedure: as §1, §2

HT-29 = assay: cells; conditions: Homo sapiens, HT-29, read-out: IC50 HT 29
Procedure: as §1, §2

[3] = cited from earlier work

CC1=C2C[C@H]3[C@@H](CC=C4C[C@@H](O)CC[C@@]43C)[C@@H]2CC[C@]12O[C@@H]1C[C@H](C)CN[C@H]1[C@H]2C [cyclopamine]
teratogenicity [1]: teratogenic | disappearance % 2 h ([2]; 2 h): 32% | disappearance % 4 h ([2]; 4 h): 68% | disappearance % 24 h ([2]; 24 h): 83% | IC50 (COLO 205): 100 to 500 nM | IC50 (OVCAR-3): 100 to 500 nM | IC50 (A549): > 2000 nM | IC50 (HT-29): 100 to 500 nM | chemical stability at low pH [3]: chemically instable
